PubChem BioAssay AID2060347 (Molecular Pharmacology Branch, DTP, NCI, 2025)
pIC50: −log10 of the molar value. Values joined by “and” are separate entries in the source; they are usually repeats but may differ in a detail not shown here. Equal values may be shown once. Active and inactive are the calls of the source. How the source made its calls: active means viability on the fitted dose curve at most 10% of control; inactive means the rest.

Test system: 817829-284-R-J1-PDC spheroids with HUVEC/MSC, viability
Experiment: Anticancer human tumor 817829-284-R-J1-PDC patient-derived colon adenocarcinoma cell line growth inhibition [TAK]
Settings: for viability, T/C: stronger effect = lower value; for IC50: compound alone
Description: Combinatorial screen of targeted agents with TAK-243 and ipatasertib in multi-cell type tumor spheroids
A high-throughput screen of multi-cell type tumor spheroids was designed to identify active combinations of targeted small molecules and TAK-243 or ipatasertib. Complex spheroids include a stromal component modeled by human endothelial cells (HUVEC) and fibroblasts modeled by human mesenchymal stem cells (MSCs). The concentration ranges selected for each drug and investigational agent were based upon clinically achievable concentrations if the clinical Cmax of the agent was known.
Compounds. The drugs and investigational agents: TAK-243 (785004), ipatasertib (767898), everolimus (733504), selumetinib (741078), bortezomib (756655), trametinib (758246), ixazomib (758254), vemurafenib (761431), dabrafenib (764134), sapanisertib (764658), alpelisib (765974), and copanlisib (816437), were obtained from the National Cancer Institute (NCI) Developmental Therapeutics Program Chemical Repository. The FDA-approved anticancer drug set is available from the NCI Developmental Therapeutics Program. […] The stock solutions were prepared in dimethyl sulfoxide (DMSO, Sigma-Aldrich, St. Louis, MO, cat. D2650) at 800-fold the tested concentration and stored at -70 degrees C prior to their use. All drugs and investigational agents were tested over a range starting from a high concentration at or near the clinical Cmax and decreasing in half-log increments. If the clinical Cmax for an agent had not been determined, the highest concentration tested was 10 microM.
NCI60 Cell Culture. NCI60 cell lines were obtained from the NCI Developmental Therapeutics Program Tumor Repository. For each lot of cells, the Repository performed Applied Biosystems AmpFLSTR Identifiler testing with PCR amplification to confirm consistency with the published Identifier STR profile for each cell line. Cells were kept in continuous culture for no more than 20 passages. The optimal seeding densities for each of the cell lines at each time point assessed were determined prior to performing the concentration response studies. Briefly, the NCI60 human tumor lines were grown as monolayers in RPMI 1640 medium supplemented with 10% FBS and 2 mmol/L L-glutamine.
An additional 2 lines were from the NCI60 cell line panel including melanomas, MALME-3M and SK-MEL-2. Pooled donor human umbilical vein endothelial cells (HUVEC, Lonza, cat. CC-2519) and human mesenchymal stem cells (hMSC, Lonza, cat. PT-2501) were purchased from Lonza (Walkersville, MD).
PDMR cell lines were grown in complete medium (DC medium): Dulbecco's modified Eagle's medium (DMEM)/F12 supplemented with 5% fetal bovine serum (FBS), 2 mM L-glutamine, 100 U/mL penicillin and 100 µg/ml streptomycin, 0.4 µg/ml hydrocortisone, 10 ng/ml epidermal growth factor (EGF) recombinant human protein, 24 µg/mL adenine, and 0.1 mg/mL primocin. During culture from frozen stock vials, PDMR cells were cultured in the same medium containing 10 µM Y-27632 (see Table 3). The PDCs were cultured in complete DMEM/F12 media without 10 microM Y-27632 dihydrochloride for at least two passages prior to the screen. The pooled donor HUVEC and hMSC were cultured in endothelial cell growth medium 2 (PromoCell, Heidelberg, Germany, cat. C-22011) and mesenchymal stem cell growth medium 2 (PromoCell, cat. C-28009), respectively. For all experiments, HUVEC and hMSC were used at passages </=5.
For the pre-screen, cell seeding densities were determined from a titration spanning the range from 5,000 to 313 cells per well. The mct-spheroids including 60% malignant cells, 25% HUVEC and 15% MSC dispensed as a mixture into U-bottom Ultra-Low Attachment 384-well plates (Corning, NY)
High-throughput Drug Combination Screening.
Prior to their inoculation into 384-well plates, malignant cells, HUVEC, and hMSC were removed from T flasks using TrypLE express (Thermo Fisher Scientific, cat. 12605036) and harvested by centrifugation for 5 min at 233 x g. […]

## CC(=O)Nc1cccc(-n2c(=O)n(C3CC3)c(=O)c3c(Nc4ccc(I)cc4F)n(C)c(=O)c(C)c32)c1
Compound 94.9 pM
  viability, T/C: 104% and 103%
Compound 0.0003 µM
  viability, T/C: 93% and 94.2%
Compound 0.000949 µM
  viability, T/C: 85.1% and 82.9%
Compound 0.003 µM
  viability, T/C: 65.9% and 53.9%
Compound 0.00949 µM
  viability, T/C: 25.9% and 33.9%
Compound 0.03 µM
  viability, T/C: 10.8% and 11%
Curve of compound
  pIC50: 8.34 and 8.38

## CC(C)(C)c1nc(-c2cccc(NS(=O)(=O)c3c(F)cccc3F)c2F)c(-c2ccnc(N)n2)s1
Compound 0.0316 µM
  viability, T/C: 98.1% and 94%
Compound 0.1 µM
  viability, T/C: 87.5% and 82.2%
Compound 0.316 µM
  viability, T/C: 54.2% and 63.3%
Compound 1 µM
  outcome: inactive
  viability, T/C: 31%
Compound 3.16 µM
  viability, T/C: 64.7% and 54.7%
Compound 10 µM
  viability, T/C: 46.4% and 50.4%

## CC(C)CC(NC(=O)C(Cc1ccccc1)NC(=O)c1cnccn1)B(O)O (centres undefined)
Compound 31.6 pM
  viability, T/C: 102% and 95.1%
Compound 0.0001 µM
  viability, T/C: 99.1% and 89.3%
Compound 0.000316 µM
  viability, T/C: 98.6% and 94.7%
Compound 0.001 µM
  viability, T/C: 89.5% and 98.6%
Compound 0.00316 µM
  viability, T/C: 103% and 99.9%
Curve of compound
  pIC50: 8.25 and < 8.00

## CC(C)CC(NC(=O)CNC(=O)c1cc(Cl)ccc1Cl)B1OC(=O)CC(CC(=O)O)(C(=O)O)O1 (centres undefined)
Compound 0.000316 µM
  viability, T/C: 106% and 97.9%
Compound 0.001 µM
  viability, T/C: 107% and 100%
Compound 0.00316 µM
  viability, T/C: 111% and 99.2%
Compound 0.01 µM
  viability, T/C: 103% and 105%
Compound 0.0316 µM
  viability, T/C: 3.63% and 22.3%
Compound 0.1 µM
  viability, T/C: 0.47% and 0.3%
Curve of compound
  pIC50: 7.73 and 7.68

## CC(C)NCC(C(=O)N1CCN(c2ncnc3c2C(C)CC3O)CC1)c1ccc(Cl)cc1 (centres undefined)
Compound 3 µM
  viability, T/C: 15.9% [middle of 10 runs]
Compound 9.49 µM
  viability, T/C: 11.2% [middle of 10 runs]
Compound 30 µM
  viability, T/C: 6.54% [middle of 10 runs]
Run of 02/28/2020
  IC50: 1.55 µM [middle of 6 runs]
Run of 03/19/2020
  IC50: 665 nM [middle of 4 runs]

## CC(C)n1nc(-c2ccc3oc(N)nc3c2)c2c(N)ncnc21
Compound 0.000316 µM
  viability, T/C: 101% and 104%
Compound 0.001 µM
  viability, T/C: 102% and 99%
Compound 0.00316 µM
  viability, T/C: 101% and 102%
Compound 0.01 µM
  viability, T/C: 93% and 92.9%
Compound 0.0316 µM
  viability, T/C: 56.8% and 61.2%
Compound 0.1 µM
  viability, T/C: 21.3% and 33.1%
Curve of compound
  pIC50: 7.40 and 7.30

## CCCS(=O)(=O)Nc1ccc(F)c(C(=O)c2c[nH]c3ncc(-c4ccc(Cl)cc4)cc23)c1F
Compound 0.316 µM
  viability, T/C: 89.1% and 93%
Compound 1 µM
  viability, T/C: 81.3% and 89.1%
Compound 3.16 µM
  viability, T/C: 62.7% and 34.4%
Compound 10 µM
  viability, T/C: 12.4% and 10.9%
Compound 31.6 µM
  viability, T/C: 56.8% and 26.3%
Compound 100 µM
  viability, T/C: 59.9% and 43.6%
Curve of compound
  pIC50: 5.18 and 5.64

## COC1CC2CCC(C)C(O)(O2)C(=O)C(=O)N2CCCCC2C(=O)OC(C(C)CC2CCC(OCCO)C(OC)C2)CC(=O)C(C)C=C(C)C(O)C(OC)C(=O)C(C)CC(C)C=CC=CC=C1C (centres undefined)
Compound 0.000316 µM
  viability, T/C: 104% and 110%
Compound 0.001 µM
  viability, T/C: 99.8% and 102%
Compound 0.00316 µM
  viability, T/C: 94% and 99.6%
Compound 0.01 µM
  viability, T/C: 81% and 86.2%
Compound 0.0316 µM
  viability, T/C: 79.2% and 82.3%
Compound 0.1 µM
  viability, T/C: 63.9% and 75%
Curve of compound
  pIC50: < 7.00

## COc1c(OCCCN2CCOCC2)ccc2c3n(c(=NC(=O)c4cnc(N)nc4)nc12)CCN3
Compound 0.00316 µM
  viability, T/C: 104% and 105%
Compound 0.01 µM
  viability, T/C: 90.7% and 96.1%
Compound 0.0316 µM
  viability, T/C: 63.8% and 44.4%
Compound 0.1 µM
  viability, T/C: 18.7% and 13.9%
Compound 0.316 µM
  viability, T/C: 3.92% and 2.94%
Compound 1 µM
  viability, T/C: 2.85% and 3.44%
Curve of compound
  pIC50: 7.36 and 7.54

## Cc1nc(NC(=O)N2CCCC2C(N)=O)sc1-c1ccnc(C(C)(C)C(F)(F)F)c1 (centres undefined)
Compound 0.0316 µM
  viability, T/C: 96.8% and 102%
Compound 0.1 µM
  viability, T/C: 98.7% and 96.4%
Compound 0.316 µM
  viability, T/C: 94.8% and 94.7%
Compound 1 µM
  viability, T/C: 88.1% and 93%
Compound 3.16 µM
  viability, T/C: 79.6% and 80%
Compound 10 µM
  viability, T/C: 48.1% and 49.1%
Curve of compound
  pIC50: 5.03 and 5.01

## Cn1cnc2c(F)c(Nc3ccc(Br)cc3Cl)c(C(=O)NOCCO)cc21
Compound 0.00949 µM
  viability, T/C: 89.3% and 94.4%
Compound 0.03 µM
  viability, T/C: 86.4% and 83.3%
Compound 0.0949 µM
  viability, T/C: 79% and 79.5%
Compound 0.3 µM
  viability, T/C: 72% and 66.6%
Compound 0.949 µM
  viability, T/C: 55.7% and 53.5%
Compound 3 µM
  viability, T/C: 25.6% and 20.5%
Curve of compound
  pIC50: 5.94 and 6.02

## COC1CC2CCC(C)C(O)(O2)C(=O)C(=O)N2CCCCC2C(=O)OC(C(C)CC2CCC(OCCO)C(OC)C2)CC(=O)C(C)C=C(C)C(O)C(OC)C(=O)C(C)CC(C)C=CC=CC=C1C (centres undefined) + CC(C)NCC(C(=O)N1CCN(c2ncnc3c2C(C)CC3O)CC1)c1ccc(Cl)cc1
Curve of first compound, second compound 0.3 µM
  pIC50: 7.84
Curve of first compound, second compound 0.949 µM
  pIC50: 9.32
Curve of first compound, second compound 3 µM
  pIC50: > 9.50
Curve of first compound, second compound 9.49 µM
  pIC50: > 9.50
Curve of first compound, second compound 30 µM
  pIC50: > 9.50
Second compound 0.3 µM, first compound 0.000316 µM
  viability, T/C: 90.9%
Second compound 0.3 µM, first compound 0.001 µM
  viability, T/C: 76.7%
Second compound 0.3 µM, first compound 0.00316 µM
  viability, T/C: 61.8%
Second compound 0.3 µM, first compound 0.01 µM
  viability, T/C: 49.9%
Second compound 0.3 µM, first compound 0.0316 µM
  viability, T/C: 49.7%
Second compound 0.3 µM, first compound 0.1 µM
  viability, T/C: 40.8%
Second compound 0.949 µM, first compound 0.000316 µM
  viability, T/C: 59%
Second compound 0.949 µM, first compound 0.001 µM
  viability, T/C: 33.4%
Second compound 0.949 µM, first compound 0.00316 µM
  viability, T/C: 33.7%
Second compound 0.949 µM, first compound 0.01 µM
  viability, T/C: 31.7%
Second compound 0.949 µM, first compound 0.0316 µM
  viability, T/C: 28.6%
Second compound 0.949 µM, first compound 0.1 µM
  viability, T/C: 28.9%
Second compound 3 µM, first compound 0.000316 µM
  viability, T/C: 23.3%
Second compound 3 µM, first compound 0.001 µM
  viability, T/C: 19.9%
Second compound 3 µM, first compound 0.00316 µM
  viability, T/C: 16.4%
Second compound 3 µM, first compound 0.01 µM
  viability, T/C: 16%
Second compound 3 µM, first compound 0.0316 µM
  viability, T/C: 18.3%
Second compound 3 µM, first compound 0.1 µM
  viability, T/C: 13.7%
Second compound 9.49 µM, first compound 0.000316 µM
  viability, T/C: 12.9%
Second compound 9.49 µM, first compound 0.001 µM
  viability, T/C: 12.5%
Second compound 9.49 µM, first compound 0.00316 µM
  viability, T/C: 12.6%
Second compound 9.49 µM, first compound 0.01 µM
  viability, T/C: 12.7%
Second compound 9.49 µM, first compound 0.0316 µM
  viability, T/C: 9.91%
Second compound 9.49 µM, first compound 0.1 µM
  viability, T/C: 12.8%
Second compound 30 µM, first compound 0.000316 µM
  viability, T/C: 7.9%
Second compound 30 µM, first compound 0.001 µM
  viability, T/C: 7.4%
Second compound 30 µM, first compound 0.00316 µM
  viability, T/C: 6.49%
Second compound 30 µM, first compound 0.01 µM
  viability, T/C: 6.32%
Second compound 30 µM, first compound 0.0316 µM
  viability, T/C: 6.79%
Second compound 30 µM, first compound 0.1 µM
  viability, T/C: 6.34%
